The record followed here is patent US20090030033A1, “Novel Compounds 894” (AstraZeneca AB, priority 2007, published 2009).

This experiment deals with T1, human GlyT1b (Homo sapiens, UniProt P48067).
T1 construct: expressed in transfected cells
T1 sequence (P48067 1-652 isoform P48067-3): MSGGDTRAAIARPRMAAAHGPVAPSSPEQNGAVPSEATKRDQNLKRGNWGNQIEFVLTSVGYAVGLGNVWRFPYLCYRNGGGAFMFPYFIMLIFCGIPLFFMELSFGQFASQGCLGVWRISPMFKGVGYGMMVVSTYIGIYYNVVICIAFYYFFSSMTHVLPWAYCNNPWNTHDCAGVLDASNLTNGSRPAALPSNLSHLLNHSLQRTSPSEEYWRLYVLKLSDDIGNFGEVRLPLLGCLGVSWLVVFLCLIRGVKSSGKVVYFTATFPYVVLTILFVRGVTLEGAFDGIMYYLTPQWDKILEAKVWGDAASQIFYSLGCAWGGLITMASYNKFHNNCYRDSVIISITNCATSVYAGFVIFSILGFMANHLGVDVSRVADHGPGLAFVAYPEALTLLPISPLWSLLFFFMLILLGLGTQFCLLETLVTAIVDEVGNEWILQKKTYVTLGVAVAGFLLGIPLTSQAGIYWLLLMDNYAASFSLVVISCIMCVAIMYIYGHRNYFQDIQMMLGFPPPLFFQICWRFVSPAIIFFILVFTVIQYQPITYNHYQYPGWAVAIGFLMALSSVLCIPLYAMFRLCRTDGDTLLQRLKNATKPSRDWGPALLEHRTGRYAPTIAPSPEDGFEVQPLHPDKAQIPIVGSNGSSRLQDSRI
The experiment is described as follows: [3H]Glycine Uptake Assay (SPA) in hGlyT1b/CHO cells. In kind it is cell-based. The conditions noted are these: compounds of Formula Ib, read at 2 h. On the procedure:
The activity and usefulness of the compounds can be assessed in assays known to those skilled in the art. […] The potency was measured in the [3H]Glycine Uptake Assay substantially as described below.
[^3H]Glycine Uptake Assay
[^3H]Glycine: PerkinElmer (NET-004, [2-^3H]Glycine, 53.3 Ci/mmol, 1 mCi/mL)
Preparation of recombinant human GlyT1-CHO cells (hGlyT1-CHO). […] CHO-K1 cells (ATCC) were transfected with the recombinant vector containing GlyT1b using Lipofectamine 2000 (Invitrogen) and cultured in Ham's/F12 media supplemented with 10% fetal bovine serum, 2 mM L-glutamine at 37° C., 5% CO2, 90% humidity. Twenty-four hours after transfection, cells were diluted and switched to media containing 500 μg/ml hygromycin B. Antibiotic resistant cells were obtained after 21 days of culture in the presence of hygromycin B. Clonal stable cell lines were isolated by FACS single cell deposition into 96-well plates.
Cell culture: Recombinant hGlyT1-CHO cells were cultured in cell culture medium (Ham's/F12, containing 10% FBS, 2 mM L-glutamine and 500 μg/ml hygromycin B in 175 cm^2 flasks until near confluence prior to use in assay.
Cell suspension: Cell medium in a cell culture flask containing near confluent cells was removed and 5 ml of cell stripper was added to submerge all cells on the surface of the culture flask. Cell stripper was removed immediately and the flask incubated in a 37° C. incubator for ˜5 min. Cells were shaken loose and suspended in 5 ml of PBS. After splitting cells to initiate a new flask(s), the cells remaining were collected by centrifugation, counted, and resuspended in assay buffer to a density of ˜2 million/mL. The cell suspension was kept at room temperature before use.
SPA and isotope mixture: WGA PTV beads were suspended in assay buffer (2 mg/ml) containing 60 nM [^3H]Glycine and 20 μM unlabeled glycine and the suspension was kept at room temperature before assay.
Assay of glycine uptake: To the wells of an OptiPlate, 2 μl DMSO containing a test compound was spotted. This was followed by addition of 98 μl of cell suspension (˜1 million/ml final). After incubating cells with compound for ˜15 min, 100 μl of the SPA (200 μg/well final) and isotope mixture (30 nM isotope with 10 μM cold glycine, final) was added to initiate the glycine uptake. At 2 h, the plate was read on a TopCount to quantify SPA counts.

pIC50: −log10 of the molar value. Structures can show the parent of a compound that is named as a salt.

A word on the pIC50: it is −log10 of the IC50, conventionally taken in molar units. Compound `CN1CC2CCC1(C(NC(=O)c1ccc(F)cc1Cl)c1ccccc1)CC2` [drawing 58, (R)-2-chloro-4-fluoro-N-((2-methyl-2-azabicyclo[2.2.2]octan-1-yl)(phenyl)methyl)benzamide,citric acid salt] had a pIC50 of 8.11.
